Source: patent US10246456B2, “IRAK4 inhibiting agents” (BIOGEN MA INC., priority 2014, dated 2019)

Key:
IRAK4 = IRAK4 (Homo sapiens (Human), UniProt Q9NWZ3); experiment: IRAK-4 AlphaScreen biochemical kinase assay; conditions: 1 nM IRAK4, 1 mM ATP, 3.5 h at RT
Method in brief: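 AlphaScreen read-out: streptavidin beads bind the biotinylated peptide and protein A beads bind the anti-phosphothreonine antibody, so energy transfer reports phosphorylation of the peptide. The kinase is human IRAK-4.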

IL-6 in A549 cells = experiment: Cell-based IL-6 ELISA assay in IL-1beta stimulated A549 cells; conditions: 2 ng/ml human IL-1beta overnight
Method in brief: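 A549 cells (2.5×10^4/well, DMEM/10% FBS) pretreated 30 min at 37 C with compound, 10-point serial dilution from 10 uM, then stimulated overnight with 2 ng/ml human IL-1beta. Secreted IL-6 in supernatant quantified by human IL-6 ELISA.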

IRAK4, sequence (Q9NWZ3 whole entry, species assumed): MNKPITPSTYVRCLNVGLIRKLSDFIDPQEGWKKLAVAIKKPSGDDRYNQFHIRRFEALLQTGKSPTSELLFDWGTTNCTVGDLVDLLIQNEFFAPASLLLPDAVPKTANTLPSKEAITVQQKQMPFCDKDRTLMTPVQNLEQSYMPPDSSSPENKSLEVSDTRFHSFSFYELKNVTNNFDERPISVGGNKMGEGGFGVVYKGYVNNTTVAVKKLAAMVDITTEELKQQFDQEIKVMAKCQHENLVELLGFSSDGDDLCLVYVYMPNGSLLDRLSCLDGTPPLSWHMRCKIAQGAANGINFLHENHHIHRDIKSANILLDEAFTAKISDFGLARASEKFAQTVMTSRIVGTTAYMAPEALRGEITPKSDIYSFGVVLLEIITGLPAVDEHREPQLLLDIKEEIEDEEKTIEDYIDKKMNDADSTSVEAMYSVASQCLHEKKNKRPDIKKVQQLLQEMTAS

Row | IC50 (IRAK4) | EC50 (IL-6 in A549 cells) | Structure (SMILES)
1 | < 100 nM | ≤ 1000 nM | CCOc1cc(-c2cccc([C@@H](N)CCC(F)(F)F)n2)cc2c1cnn2-c1cccc(CO)n1 [Example 510, (S)-(6-(6-(6-(1-amino-4,4,4-trifluorobutyl)pyridin-2-yl)-4-ethoxy-1H-indazol-1-yl)pyridin-2-yl)methanol]
2 | < 100 nM | ≤ 1000 nM | CCC[C@H](N)c1cccc(-c2cc(C#N)c3cnn(-c4cccc(CO)n4)c3c2)n1 [Example 511, (S)-6-(6-(1-aminobutyl)pyridin-2-yl)-1-(6-(hydroxymethyl)pyridin-2-yl)-1H-indazole-4-carbonitrile]
3 | < 100 nM | ≤ 1000 nM | CC[C@H](N)c1cccc(-c2ccc3cnn(-c4nccc(C(F)F)n4)c3c2)n1 [Example 512, (S)-1-(6-(1-(4-(difluoromethyl)pyrimidin-2-yl)-1H-indazol-6-yl)pyridin-2-yl)propan-1-amine]
4 | < 100 nM | ≤ 1000 nM | CCOc1cc(-c2cccc([C@@H](N)CCCOC)n2)cc2c1cnn2-c1cccc(CO)n1 [Example 513, (S)-(6-(6-(6-(1-amino-4-methoxybutyl)pyridin-2-yl)-4-ethoxy-1H-indazol-1-yl)pyridin-2-yl)methanol]
5 | < 100 nM | ≤ 1000 nM | CCC[C@H](N)c1cccc(-c2cc(OCC(F)(F)F)c3cnn(-c4cccc(CO)n4)c3c2)n1 [Example 514, (S)-(6-(6-(6-(1-aminobutyl)pyridin-2-yl)-4-(2,2,2-trifluoroethoxy)-1H-indazol-1-yl)pyridin-2-yl)methanol]
6 | < 100 nM | ≤ 1000 nM | CCC[C@H](N)c1cccc(-c2cc(C3CCN(C(C)=O)CC3)c3cnn(-c4cccc(CO)n4)c3c2)n1 [Example 515, (S)-1-(4-(6-(6-(1-aminobutyl)pyridin-2-yl)-1-(6-(hydroxymethyl)pyridin-2-yl)-1H-indazol-4-yl)piperidin-1-yl)ethanone]
7 | < 100 nM | ≤ 1000 nM | CCC[C@H](N)c1cccc(-c2cc(CN(C)C)c3cnn(-c4cccc(CO)n4)c3c2)n1 [Example 517, (S)-(6-(6-(6-(1-aminobutyl)pyridin-2-yl)-4-((dimethylamino)methyl)-1H-indazol-1-yl)pyridin-2-yl)methanol]
8 | < 100 nM | ≤ 1000 nM | CCC[C@H](N)c1cccc(-c2ccc3cnn(-c4cccc(CF)n4)c3c2)n1 [Example 518, (S)-1-(6-(1-(6-(fluoromethyl)pyridin-2-yl)-1H-indazol-6-yl)pyridin-2-yl)butan-1-amine]
9 | < 100 nM | ≤ 1000 nM | CSCC(N)c1cccc(-c2ccc3cnn(-c4cccc(CO)n4)c3c2)n1 (stereo not shown) [Example 520, (6-(6-(6-(1-amino-2-(methylthio)ethyl)pyridin-2-yl)-1H-indazol-1-yl)pyridin-2-yl)methanol]
10 | < 100 nM | ≤ 1000 nM | CC(C)C[C@H](N)c1cccc(-c2ccc3cnn(-c4cccc(CO)n4)c3c2)n1 [Example 521, (S)-(6-(6-(6-(1-amino-3-methylbutyl)pyridin-2-yl)-1H-indazol-1-yl)pyridin-2-yl)methanol]
11 | < 100 nM | ≤ 1000 nM | CCC[C@H](N)c1cccc(-c2cc(OCCC3CC3)c3cnn(-c4cccc(CO)n4)c3c2)n1 [Example 522, (S)-(6-(6-(6-(1-aminobutyl)pyridin-2-yl)-4-(2-cyclopropylethoxy)-1H-indazol-1-yl)pyridin-2-yl)methanol]
12 | < 100 nM | ≤ 1000 nM | CCC[C@H](N)c1cccc(-c2cc(OC(F)(F)F)c3cnn(-c4cccc(CO)n4)c3c2)n1 [Example 523, (S)-(6-(6-(6-(1-aminobutyl)pyridin-2-yl)-4-(trifluoromethoxy)-1H-indazol-1-yl)pyridin-2-yl)methanol]
13 | < 100 nM | ≤ 1000 nM | C[C@H](N)c1cccc(-c2cc(C3=NCCO3)c3cnn(-c4cccc(CO)n4)c3c2)n1 [Example 524, (S)-(6-(6-(6-(1-aminoethyl)pyridin-2-yl)-4-(4,5-dihydrooxazol-2-yl)-1H-indazol-1-yl)pyridin-2-yl)methanol]
14 | < 100 nM | ≤ 1000 nM | CCC[C@H](N)c1cccc(-c2cc(OC(F)F)c3cnn(-c4cncc(CO)n4)c3c2)n1 [Example 526, (S)-(6-(6-(6-(1-aminobutyl)pyridin-2-yl)-4-(difluoromethoxy)-1H-indazol-1-yl)pyrazin-2-yl)methanol]
15 | < 100 nM | ≤ 1000 nM | CCC[C@H](NC)c1cccc(-c2ccc3cnn(-c4cccc(CO)n4)c3c2)n1 [Example 527, (S)-(6-(6-(6-(1-(methylamino)butyl)pyridin-2-yl)-1H-indazol-1-yl)pyridin-2-yl)methanol]
16 | < 100 nM | ≤ 1000 nM | CC1COC(c2cc(-c3cccc([C@H](C)N)n3)cc3c2cnn3-c2cccc(CO)n2)=N1 (stereo partly drawn) [Example 528, (6-(6-(6-((S)-1-aminoethyl)pyridin-2-yl)-4-(4-methyl-4,5-dihydrooxazol-2-yl)-1H-indazol-1-yl)pyridin-2-yl)methanol]

Row | IC50 (IRAK4) | EC50 (IL-6 in A549 cells) | Structure (SMILES)
17 | 100 to 1000 nM | ≤ 1000 nM | NC(CO)c1cccc(-c2ccc3cnn(-c4cccc(CO)n4)c3c2)n1 (stereo not shown) [Example 530, 2-amino-2-(6-(1-(6-(hydroxymethyl)pyridin-2-yl)-1H-indazol-6-yl)pyridin-2-yl)ethanol]
18 | < 100 nM | ≤ 1000 nM | CCC[C@H](N)c1cccc(-c2ccc3cnn(-c4nccc(C(F)(F)F)n4)c3c2)n1 [Example 531, (S)-1-(6-(1-(4-(trifluoromethyl)pyrimidin-2-yl)-1H-indazol-6-yl)pyridin-2-yl)butan-1-amine]
19 | < 100 nM | ≤ 1000 nM | CS(=O)(=O)CC(N)c1cccc(-c2ccc3cnn(-c4cccc(CO)n4)c3c2)n1 (stereo not shown) [Example 532, (6-(6-(6-(1-amino-2-(methylsulfonyl)ethyl)pyridin-2-yl)-1H-indazol-1-yl)pyridin-2-yl)methanol]
20 | < 100 nM | ≤ 1000 nM | CC[C@H](N)c1cccc(-c2cc(C#N)c3cnn(-c4cccc(CO)n4)c3c2)n1 [Example 533, (S)-6-(6-(1-aminopropyl)pyridin-2-yl)-1-(6-(hydroxymethyl)pyridin-2-yl)-1H-indazole-4-carbonitrile]
21 | < 100 nM | ≤ 1000 nM | NC(CC1CC1)c1cccc(-c2ccc3cnn(-c4cccc(CO)n4)c3c2)n1 (stereo not shown) [Example 535, (6-(6-(6-(1-amino-2-cyclopropylethyl)pyridin-2-yl)-1H-indazol-1-yl)pyridin-2-yl)methanol]
22 | < 100 nM | ≤ 1000 nM | Cc1cccc(-n2ncc3c(-c4cnco4)cc(-c4cccc(C(C)N)n4)cc32)n1 (stereo not shown) [Example 536, 1-(6-(1-(6-methylpyridin-2-yl)-4-(oxazol-5-yl)-1H-indazol-6-yl)pyridin-2-yl)ethanamine]
23 | < 100 nM | ≤ 1000 nM | C[C@H](N)c1cccc(-c2cc(C#N)c3cnn(-c4cccc(CO)n4)c3c2)n1 [Example 537, (S)-6-(6-(1-aminoethyl)pyridin-2-yl)-1-(6-(hydroxymethyl)pyridin-2-yl)-1H-indazole-4-carbonitrile]
24 | < 100 nM | ≤ 1000 nM | NC(c1cccc(-c2ccc3cnn(-c4cccc(CO)n4)c3c2)n1)C1CC1 (stereo not shown) [Example 538, (6-(6-(6-(amino(cyclopropyl)methyl)pyridin-2-yl)-1H-indazol-1-yl)pyridin-2-yl)methanol]
25 | < 100 nM | 1000 to 10000 nM | CC[C@H](N)c1cccc(-c2ccc3cnn(-c4cccc(C(F)F)n4)c3c2)n1 [Example 539, (S)-1-(6-(1-(6-(difluoromethyl)pyridin-2-yl)-1H-indazol-6-yl)pyridin-2-yl)propan-1-amine]
26 | 100 to 1000 nM | 1000 to 10000 nM | C[C@H](N)c1cccc(-c2cc(C(=O)NC(C)(C)CO)c3cnn(-c4cccc(CO)n4)c3c2)n1 [Example 540, (S)-6-(6-(1-aminoethyl)pyridin-2-yl)-N-(1-hydroxy-2-methylpropan-2-yl)-1-(6-(hydroxymethyl)pyridin-2-yl)-1H-indazole-4-carboxamide]
27 | 100 to 1000 nM | 1000 to 10000 nM | C[C@H](N)c1cccc(-c2ccc3cnn(-c4nccc(C(F)F)n4)c3c2)n1 [Example 541, (S)-1-(6-(1-(4-(difluoromethyl)pyrimidin-2-yl)-1H-indazol-6-yl)pyridin-2-yl)ethanamine]
28 | < 100 nM | 1000 to 10000 nM | Cc1cccc(-n2ncc3c(-c4ncco4)cc(-c4cccc(C(C)N)n4)cc32)n1 (stereo not shown) [Example 542, 1-(6-(1-(6-methylpyridin-2-yl)-4-(oxazol-2-yl)-1H-indazol-6-yl)pyridin-2-yl)ethanamine]
29 | < 100 nM | 1000 to 10000 nM | COCC(N)c1cccc(-c2ccc3cnn(-c4cccc(CO)n4)c3c2)n1 (stereo not shown) [Example 543, (6-(6-(6-(1-amino-2-methoxyethyl)pyridin-2-yl)-1H-indazol-1-yl)pyridin-2-yl)methanol]
30 | < 100 nM | 1000 to 10000 nM | CN(C)C(=O)C(N)c1cccc(-c2ccc3cnn(-c4cccc(CO)n4)c3c2)n1 (stereo not shown) [Example 544, 2-amino-2-(6-(1-(6-(hydroxymethyl)pyridin-2-yl)-1H-indazol-6-yl)pyridin-2-yl)-N,N-dimethylacetamide]
31 | < 100 nM | 1000 to 10000 nM | C[C@H](N)c1cccc(-c2ccc3cnn(-c4ccc(F)c(CO)n4)c3c2)n1 [Example 545, (S)-(6-(6-(6-(1-aminoethyl)pyridin-2-yl)-1H-indazol-1-yl)-3-fluoropyridin-2-yl)methanol]
32 | < 100 nM | 1000 to 10000 nM | CCC[C@H](N)c1cccc(-c2ccc3cnn(-c4cncc(C(F)(F)F)n4)c3c2)n1 [Example 546, (S)-1-(6-(1-(6-(trifluoromethyl)pyrazin-2-yl)-1H-indazol-6-yl)pyridin-2-yl)butan-1-amine]
